Experimental data published in PMC11986975, “A Cdk5 inhibitor restores cognitive function and alleviates type 2 diabetes in mice” (iScience, 2025).

Experiments:
Cdk5/p35 = Cdk5/p35 (Homo sapiens, UniProt Q00535); test: Cdk5 kinase assay (ADP-Glo) with Cdk5/p35 complex; assay type: biochemical; conditions: 10 μM ATP, histone substrate, inhibitor 0-100 nM
Method: (§1) The test tube Cdk5 Kinase assay was performed utilizing Cdk5/p35 and Cdk5/p25 complexes as kinases, following the modified procedure outlined in a previous study,[52] using a Promega ADP-GloTM Kinase Assay kit. The reaction was carried out with 10 μM ATP and 2 μg of histone as the substrate for Cdk5 complexes. To study the inhibition patterns, 19 Cdk5 inhibitors (BLINK1-19) identified through molecular docking were added to the Cdk5 kinase reaction in increasing concentrations ranging from 0 to 100 nM. The IC50 (half-maximal inhibitory concentration) values of all the inhibitors were calculated based on Log(inhibitor) vs. normalized response using GraphPad software.

Cdk5/p25 = Cdk5/p25 (Homo sapiens, UniProt Q00535); test: Cdk5 kinase assay (ADP-Glo) with Cdk5/p25 complex; assay type: biochemical; conditions: 10 μM ATP, histone substrate, inhibitor 0-100 nM
Method: as §1

Chain of Cdk5/p25 (Q00535 whole entry, species assumed): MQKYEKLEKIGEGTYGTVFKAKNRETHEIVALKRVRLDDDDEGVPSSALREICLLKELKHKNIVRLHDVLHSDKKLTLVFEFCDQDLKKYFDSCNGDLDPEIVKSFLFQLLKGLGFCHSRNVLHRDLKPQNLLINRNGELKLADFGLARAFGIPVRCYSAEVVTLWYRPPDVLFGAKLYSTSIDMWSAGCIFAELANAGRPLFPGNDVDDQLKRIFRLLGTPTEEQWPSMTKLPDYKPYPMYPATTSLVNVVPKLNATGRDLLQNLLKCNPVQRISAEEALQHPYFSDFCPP
Chain of Cdk5/p25 (Q15078 99-307 partner limits assumed, species assumed): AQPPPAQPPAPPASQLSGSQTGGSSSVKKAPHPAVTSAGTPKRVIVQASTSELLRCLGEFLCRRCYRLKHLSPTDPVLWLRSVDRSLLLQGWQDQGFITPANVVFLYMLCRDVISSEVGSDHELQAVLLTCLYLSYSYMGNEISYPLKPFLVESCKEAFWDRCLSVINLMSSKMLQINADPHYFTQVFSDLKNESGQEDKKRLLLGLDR
Chain of Cdk5/p35 (Q00535 whole entry, species assumed): as the sequence (Q00535 whole entry, species assumed) above
Chain of Cdk5/p35 (Q15078 whole entry partner, species assumed): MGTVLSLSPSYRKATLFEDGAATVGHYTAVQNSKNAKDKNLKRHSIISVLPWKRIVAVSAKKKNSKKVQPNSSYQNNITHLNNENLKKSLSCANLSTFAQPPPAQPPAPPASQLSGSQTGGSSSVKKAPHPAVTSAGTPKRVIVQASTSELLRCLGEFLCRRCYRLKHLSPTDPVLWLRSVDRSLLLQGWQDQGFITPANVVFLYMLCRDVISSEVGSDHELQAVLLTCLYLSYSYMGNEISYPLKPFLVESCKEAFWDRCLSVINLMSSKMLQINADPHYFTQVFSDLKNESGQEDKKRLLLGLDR

IC50 (Cdk5/p35)	IC50 (Cdk5/p25)	SMILES
27.7 nM	16.9 nM	O=C(Nc1ccc(Cl)cc1C(=O)NCCO)c1ccc(Cl)cc1Cl [BLINK4]
85.2 nM	97 nM	Cc1nnc(SCC(=O)Nc2nsc(-c3ccc(Cl)cc3)n2)s1 [BLINK7]
19.2 nM	18.4 nM	CC1(C)Cc2c(sc3nc(SCC(=O)O)[nH]c(=O)c23)CO1 [BLINK1]
28 nM	21.2 nM	Clc1ccc2nc(SCc3csc(Nc4ccccc4)n3)oc2c1 [BLINK16]
183 nM	141 nM	OCCCNc1nc(-c2ccccc2Cl)c2cc(Br)ccc2n1 [BLINK6]
57.2 nM	32.1 nM	O=C1c2cccc3cccc(c23)C(=O)N1CCCSc1n[nH]c(-c2ccc(F)cc2)n1 [BLINK18]
20.1 nM	41.5 nM	O=C(CSc1nnc(-c2ccccc2Cl)[nH]1)c1ccc(O)c(O)c1 [BLINK13]
24.8 nM	23.1 nM	Cc1cc(C)c2nc(-c3cccnc3)cc(C(=O)Nc3sc(Cc4ccccc4)cc3C(N)=O)c2c1 [BLINK14]
50.6 nM	108 nM	Cc1ccc2nc(Nc3nc(O)cc(CSc4nnc(C)s4)n3)nc(C)c2c1 [BLINK8]
16.9 nM	17.5 nM	CN(C)C(=O)CSc1nc2sc3c(c2c(=O)[nH]1)CCCC3 [BLINK5]
92.6 nM	33.5 nM	COc1ccc(C(=O)CSc2nc3sc(C)c(C)c3c(=O)[nH]2)cc1C [BLINK2]
55.3 nM	48.1 nM	CC1CCc2c(sc3nc(CCl)ncc23)C1 (stereo not drawn) [BLINK19]
63.2 nM	43.2 nM	O=C(CSc1n[nH]c(-c2ccc(Cl)cc2)n1)N[C@H]1C[C@@H]2CC[C@H]1C2 [BLINK17]
54.1 nM	35.1 nM	CCOC(=O)c1cnc(Nc2nc3ccccc3o2)nc1CSc1nnc(C)s1 [BLINK9]

SMILES	IC50 (Cdk5/p35)	IC50 (Cdk5/p25)
Cc1ccc(-c2csc(Cc3nc(-c4cc5ccccc5oc4=O)cs3)n2)cc1 [BLINK3]	68.7 nM	71.3 nM
